How the values were obtained:
[1] = DRUGMATRIX: Sodium/nucleoside co-transporter radioligand binding (ligand: nitrobenzylthioinosine); assay type: cell membranes, Cavia porcellus, Dunkin-Hartley, Cerebral cortex, Membrane; conditions: Not Active = under 50% inhibition at 10 µM
[2] = target: Histamine H2 receptor (Homo sapiens, UniProt P25021); assay type: cell membranes, CHO-K1, Membrane; also: in other assays of this panel Not Active means under 50% inhibition at 10 µM
[3] = target: Nitric oxide synthase 1 (Rattus norvegicus, UniProt P29476); assay type: tissue-based, Cerebellum; also: in other assays of this panel Not Active means under 50% inhibition at 10 µM
Nitric oxide synthase 1, sequence (P29476 whole entry): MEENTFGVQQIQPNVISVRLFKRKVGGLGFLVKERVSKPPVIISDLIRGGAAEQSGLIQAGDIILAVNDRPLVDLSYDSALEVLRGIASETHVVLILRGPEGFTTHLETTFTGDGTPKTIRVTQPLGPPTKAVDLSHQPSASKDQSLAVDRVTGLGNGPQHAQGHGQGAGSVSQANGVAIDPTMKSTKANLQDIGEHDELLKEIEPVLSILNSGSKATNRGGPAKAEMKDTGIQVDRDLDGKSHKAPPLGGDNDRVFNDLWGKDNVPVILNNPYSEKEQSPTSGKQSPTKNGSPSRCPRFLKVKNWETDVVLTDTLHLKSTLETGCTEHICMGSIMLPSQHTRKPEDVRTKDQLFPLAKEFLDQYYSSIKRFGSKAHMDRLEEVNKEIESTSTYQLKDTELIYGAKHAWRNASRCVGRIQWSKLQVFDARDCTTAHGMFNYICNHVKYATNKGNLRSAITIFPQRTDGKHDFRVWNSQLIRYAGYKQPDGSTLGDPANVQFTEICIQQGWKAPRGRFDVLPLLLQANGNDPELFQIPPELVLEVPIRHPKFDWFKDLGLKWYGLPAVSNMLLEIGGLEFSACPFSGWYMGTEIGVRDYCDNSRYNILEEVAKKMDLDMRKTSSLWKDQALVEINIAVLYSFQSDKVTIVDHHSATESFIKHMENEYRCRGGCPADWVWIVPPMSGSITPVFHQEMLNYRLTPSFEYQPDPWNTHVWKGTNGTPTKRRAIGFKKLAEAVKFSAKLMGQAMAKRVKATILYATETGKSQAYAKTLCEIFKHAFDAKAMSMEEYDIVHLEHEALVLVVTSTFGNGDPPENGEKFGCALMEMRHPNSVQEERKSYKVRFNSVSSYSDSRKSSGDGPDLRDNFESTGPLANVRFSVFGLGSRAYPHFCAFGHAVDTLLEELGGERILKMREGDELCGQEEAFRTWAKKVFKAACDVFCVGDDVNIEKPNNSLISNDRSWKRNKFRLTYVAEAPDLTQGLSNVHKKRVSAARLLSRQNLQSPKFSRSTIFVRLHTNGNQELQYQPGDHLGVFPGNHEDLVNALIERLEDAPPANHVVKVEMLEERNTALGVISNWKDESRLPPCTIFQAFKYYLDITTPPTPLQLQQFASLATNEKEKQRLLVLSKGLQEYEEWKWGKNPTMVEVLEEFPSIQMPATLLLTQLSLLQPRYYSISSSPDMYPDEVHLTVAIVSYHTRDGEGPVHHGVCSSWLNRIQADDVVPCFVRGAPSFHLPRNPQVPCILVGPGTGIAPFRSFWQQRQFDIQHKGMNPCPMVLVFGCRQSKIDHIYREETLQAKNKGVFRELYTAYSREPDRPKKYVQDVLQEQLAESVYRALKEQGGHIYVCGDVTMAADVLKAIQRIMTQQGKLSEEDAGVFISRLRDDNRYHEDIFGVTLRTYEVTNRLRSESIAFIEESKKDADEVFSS

[4] = target: T1, Adenosine receptor A3 (Homo sapiens, UniProt P0DMS8); assay type: cell membranes, CHO-K1, Membrane; conditions: cho-k1;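 also: radioligand binding assay with AB-MECA serving as the labeled ligand; in other assays of this panel Not Active means under 50% inhibition at 10 µM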
T1 sequence (P0DMS8 whole entry): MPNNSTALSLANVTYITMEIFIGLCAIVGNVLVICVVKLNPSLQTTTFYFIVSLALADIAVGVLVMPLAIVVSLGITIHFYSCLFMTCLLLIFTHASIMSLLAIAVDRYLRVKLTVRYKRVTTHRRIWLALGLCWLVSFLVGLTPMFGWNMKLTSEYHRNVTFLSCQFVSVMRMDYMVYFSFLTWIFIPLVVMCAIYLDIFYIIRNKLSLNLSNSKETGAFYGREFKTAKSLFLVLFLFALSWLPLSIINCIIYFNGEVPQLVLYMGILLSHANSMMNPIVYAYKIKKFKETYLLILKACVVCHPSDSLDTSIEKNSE

[5] = target: Cytochrome P450 2D6 (Homo sapiens, UniProt P10635); conditions: bti-tn-5b1-4; also: in other assays of this panel Not Active means under 50% inhibition at 10 µM
Cytochrome P450 2D6, sequence (P10635 whole entry): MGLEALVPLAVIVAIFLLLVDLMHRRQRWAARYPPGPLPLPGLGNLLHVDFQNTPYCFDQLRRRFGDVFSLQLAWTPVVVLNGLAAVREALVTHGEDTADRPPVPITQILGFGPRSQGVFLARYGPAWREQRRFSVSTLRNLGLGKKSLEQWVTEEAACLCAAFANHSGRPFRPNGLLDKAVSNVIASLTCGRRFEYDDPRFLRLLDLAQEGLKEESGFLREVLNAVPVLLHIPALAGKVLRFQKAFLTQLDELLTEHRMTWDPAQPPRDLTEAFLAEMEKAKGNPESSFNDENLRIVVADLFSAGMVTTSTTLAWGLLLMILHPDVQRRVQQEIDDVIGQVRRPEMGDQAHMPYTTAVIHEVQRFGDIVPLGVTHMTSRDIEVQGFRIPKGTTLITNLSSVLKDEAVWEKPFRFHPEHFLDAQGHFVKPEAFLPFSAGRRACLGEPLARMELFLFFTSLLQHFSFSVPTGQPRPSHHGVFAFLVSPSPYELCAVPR

[6] = target: T2, Alpha-2C adrenergic receptor (Homo sapiens, UniProt P18825); test: DRUGMATRIX: Adrenergic Alpha-2C radioligand binding (ligand: [3H] MK-912); assay type: cell membranes, Sf9, Membrane; conditions: sf9
T2 sequence (P18825 whole entry): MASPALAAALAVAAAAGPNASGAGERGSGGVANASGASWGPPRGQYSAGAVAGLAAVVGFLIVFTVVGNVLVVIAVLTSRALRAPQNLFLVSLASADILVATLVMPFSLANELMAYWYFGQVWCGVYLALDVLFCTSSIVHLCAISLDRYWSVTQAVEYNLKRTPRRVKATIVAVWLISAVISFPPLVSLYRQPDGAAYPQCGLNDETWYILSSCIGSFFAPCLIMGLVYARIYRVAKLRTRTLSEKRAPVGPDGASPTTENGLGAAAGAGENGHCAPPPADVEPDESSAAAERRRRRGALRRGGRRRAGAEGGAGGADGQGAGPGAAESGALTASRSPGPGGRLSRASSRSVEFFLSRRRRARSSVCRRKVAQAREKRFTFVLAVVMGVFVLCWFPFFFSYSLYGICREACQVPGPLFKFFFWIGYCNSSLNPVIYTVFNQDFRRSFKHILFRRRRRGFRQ

[7] = target: Estrogen receptor beta (Homo sapiens, UniProt Q92731); conditions: sf9; also: in other assays of this panel Not Active means under 50% inhibition at 10 µM
Estrogen receptor beta, sequence (Q92731 whole entry): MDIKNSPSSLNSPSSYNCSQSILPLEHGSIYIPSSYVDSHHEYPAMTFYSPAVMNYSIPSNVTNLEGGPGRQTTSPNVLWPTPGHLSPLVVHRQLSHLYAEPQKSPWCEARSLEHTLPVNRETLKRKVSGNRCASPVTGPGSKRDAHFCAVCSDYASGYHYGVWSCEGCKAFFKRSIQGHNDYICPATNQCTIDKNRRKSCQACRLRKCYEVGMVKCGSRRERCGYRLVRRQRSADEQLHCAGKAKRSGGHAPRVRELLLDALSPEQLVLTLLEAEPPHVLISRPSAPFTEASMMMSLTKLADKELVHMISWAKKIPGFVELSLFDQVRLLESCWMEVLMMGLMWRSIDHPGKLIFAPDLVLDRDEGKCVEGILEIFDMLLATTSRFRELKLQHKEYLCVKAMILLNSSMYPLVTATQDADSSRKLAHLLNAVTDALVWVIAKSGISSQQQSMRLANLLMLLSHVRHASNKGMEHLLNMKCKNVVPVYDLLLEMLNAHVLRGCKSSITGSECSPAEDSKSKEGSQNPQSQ

Histamine H2 receptor, sequence (P25021 whole entry): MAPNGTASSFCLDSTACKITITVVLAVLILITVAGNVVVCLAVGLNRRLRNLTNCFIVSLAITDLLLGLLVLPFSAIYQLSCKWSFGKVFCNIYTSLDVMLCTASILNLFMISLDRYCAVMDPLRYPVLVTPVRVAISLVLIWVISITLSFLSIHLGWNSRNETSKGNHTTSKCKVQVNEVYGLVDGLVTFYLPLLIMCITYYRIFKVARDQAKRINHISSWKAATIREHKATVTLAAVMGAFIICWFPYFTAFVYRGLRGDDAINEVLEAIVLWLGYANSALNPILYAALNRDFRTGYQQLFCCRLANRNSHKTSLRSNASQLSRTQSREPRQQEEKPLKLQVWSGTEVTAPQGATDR

Row | SMILES | IC50 [1] | Ki [1] | IC50 ([2]; cho-k1) | IC50 [3] | IC50 [4] | IC50 [5] | Ki [5] | IC50 [6] | IC50 ([2]; read-out: IC50) [nM] | Ki ([2]; read-out: Ki) [nM] | IC50 [7]
1 | CNC[C@H](O)c1ccc(O)c(O)c1 [EPINEPHRINE] | Not Active | Not Active | Not Active | Not Active | Not Active | Not Active | Not Active |  |  |  | 
2 | C=CCO [ALLYL ALCOHOL] | Not Active | Not Active | Not Active | Not Active | Not Active | Not Active | Not Active | Not Active |  |  | 
3 | ClC1=C(Cl)[C@]2(Cl)[C@@H]3[C@@H]4C[C@@H]([C@H]5O[C@@H]45)[C@@H]3[C@@]1(Cl)C2(Cl)Cl [DIELDRIN] | Not Active | Not Active | Not Active | Not Active | Not Active | Not Active | Not Active | Not Active |  |  | 
4 | Oc1ccccc1 [PHENOL] | Not Active | Not Active | Not Active | Not Active | Not Active | Not Active | Not Active | Not Active |  |  | 
5 | OC[C@H]1O[C@@H]2O[C@H]3[C@H](O)[C@@H](O)[C@@H](O[C@H]4[C@H](O)[C@@H](O)[C@@H](O[C@H]5[C@H](O)[C@@H](O)[C@@H](O[C@H]6[C@H](O)[C@@H](O)[C@@H](O[C@H]7[C@H](O)[C@@H](O)[C@@H](O[C@H]8[C@H](O)[C@@H](O)[C@@H](O[C@H]1[C@H](O)[C@H]2O)O[C@@H]8CO)O[C@@H]7CO)O[C@@H]6CO)O[C@@H]5CO)O[C@@H]4CO)O[C@@H]3CO [BETADEX] | Not Active | Not Active | Not Active | Not Active | Not Active | Not Active | Not Active | Not Active |  |  | 
6 | NC(N)=Nc1nc(CSCCC(N)=NS(N)(=O)=O)cs1 [FAMOTIDINE] | Not Active | Not Active |  | Not Active | Not Active | Not Active | Not Active | Not Active | 42 | 41 | 
7 | Cc1c(N)nc([C@H](CC(N)=O)NC[C@H](N)C(N)=O)nc1C(=O)N[C@H](C(=O)N[C@H](C)[C@@H](O)[C@H](C)C(=O)N[C@H](C(=O)NCCc1nc(-c2nc(C(=O)NCCC[S+](C)C)cs2)cs1)[C@@H](C)O)[C@@H](O[C@@H]1O[C@@H](CO)[C@@H](O)[C@H](O)[C@@H]1O[C@H]1O[C@H](CO)[C@@H](O)[C@H](OC(N)=O)[C@@H]1O)c1c[nH]cn1.[Br-] [BLEOMYCIN A2] | Not Active | Not Active | Not Active | Not Active | Not Active | Not Active | Not Active | Not Active |  |  | 
8 | O=C(O)CNCP(=O)(O)O [GLYPHOSATE] | Not Active | Not Active | Not Active | Not Active | Not Active |  |  | Not Active |  |  | Not Active
9 | CC(N)Cc1c[nH]c2ccc(OCc3cccs3)cc12 (stereo not drawn) [BW-723C86] | Not Active | Not Active | Not Active | Not Active | Not Active |  |  | Not Active |  |  | Not Active
10 | CC(=O)[C@]1(O)Cc2c(O)c3c(c(O)c2[C@@H](O[C@H]2C[C@H](N)[C@H](O)[C@H](C)O2)C1)C(=O)c1ccccc1C3=O [IDARUBICIN] | Not Active | Not Active | Not Active | Not Active | Not Active | Not Active | Not Active | Not Active |  |  | 
11 | Nc1ccc(C(=O)O)c(O)c1 [AMINOSALICYLIC ACID] | Not Active | Not Active | Not Active | Not Active | Not Active | Not Active | Not Active | Not Active |  |  | 
12 | c1ccc(Cn2ccnc2)cc1 | Not Active | Not Active | Not Active | Not Active | Not Active |  |  | Not Active |  |  | Not Active
13 | C[N+](C)(C)CCOC(N)=O.[Cl-] [CARBACHOL] | Not Active | Not Active | Not Active | Not Active | Not Active | Not Active | Not Active | Not Active |  |  | 
14 | Cc1cc(C(C)(C)C)c(O)c(C)c1CC1=NCCN1 [OXYMETAZOLINE] | Not Active | Not Active | Not Active | Not Active | Not Active |  |  |  |  |  | Not Active
15 | NS(=O)(=O)c1cc(C(=O)O)c(NCc2ccco2)cc1Cl [FUROSEMIDE] | Not Active | Not Active | Not Active | Not Active | Not Active |  |  | Not Active |  |  | 
